Measurements from patent US11331289B2, “Antimicrobial composition” (priority 2017, dated 2022).

What was measured:
[1] = test system: MRSA 16116; experiment: Time-killing curve, inoculum 10^6 CFU/ml (MIC 0.5 μg/ml); format: cell-based, Staphylococcus aureus
Experimental: (§1) The objective of this study is to assess in vitro the time-killing curves of oxyclozanide against four strains of Methicillin-Resistant Staphylococcus from dogs.
(§2) Two Methicillin-Resistant Staphylococcus aureus (MRSA) and two Methicillin-Resistant Staphylococcus pseudintermedius (MRSP) isolated from the clinics have been tested.
(§3) The assessment of time-killing curves has been realized by a broth macrodilution method (Mueller-Hinton II Broth).
(§4) Oxyclozanide is diluted in (DMSO) into sterile tubes in order to obtain the following concentrations from 800 to 6.25 μg/ml. Those concentrations and stock standard solution are then diluted (1/10) in Mueller-Hinton II Broth in order to obtain the following concentrations from […] (See Table 2).
(§5) Each operation is performed under sterile conditions. Each working standard solution (10*the final active ingredient concentration) is distributed in tubes (1 ml, for a final volume of 10 ml after addition of 9 ml of inoculum). One tube without active ingredient is used as growth control (Concentration=0).
(§6) Bacterial isolates are sub-cultured from one cryobead on Columbia agar supplemented with 5% of blood. Pure cultures are incubated during 18-24 hours at 37° C. Three to five isolated colonies of similar appearance are selected from a previous culture and transferred into tubes containing 9 ml of Mueller-Hinton II Broth. The broth is incubated during 12-18 hours at 37° C. 0.5 to 1 ml of this broth is inoculated to another Mueller-Hinton II Broth 9 ml tube which is incubated during 3 to 4 hours at 37° C. to reach the exponential growth phase. The bacterial inoculum grown exponential phase is suspended to an optical density of McFarland standard scale 0.5 equivalent to a bacterial density of 10^8 CFU/ml and then adjusted to a concentration of about 5.10^5 CFU/ml as indicated by the guideline CLSI M26-A and to a second inoculum tested: 10^6 CFU/ml.
(§7) 9 ml of bacterial inoculum grown to exponential phase is added to 1 ml of active ingredient (or Mueller Hinton II Broth for the growth control). Tubes are incubated at 35° C. during 24 hours.
(§8) At times 0, 2, 4, 6 and 24 hours, 100 μl of broth of each tube is sampled and diluted in microplates:
(§9) Each well is re-cultured by streaking 10 μl on Columbia agar supplemented with 5% of blood. Plates are incubated at 37° C. during 18-24 hours incubation. Thus, residual bacterial concentrations are determined (CFU/ml). Results are expressed in log10 values of CFU/ml over-time in broth. Due to the procedure used, the minimal bacterial concentration that can be assessed is 10^2 CFU/ml.

[2] = test system: MRSP 16127; experiment: Time-killing curve, inoculum 10^6 CFU/ml (MIC 0.25 μg/ml); format: cell-based, Staphylococcus pseudintermedius
Experimental: as §1, §2, §3, §4, §5, §6, §7, §8, §9

## O=C(Nc1cc(Cl)cc(Cl)c1O)c1c(O)c(Cl)cc(Cl)c1Cl [Oxyclozanide]
[1]; 8 MIC, 4 h
  Counting results: 1.000E+02 CFU/ml
[1]; 8 MIC, 6 h
  Counting results: 1.000E+02 CFU/ml
[1]; 8 MIC, 24 h
  Counting results: 1.000E+02 CFU/ml
[1]; 16 MIC, 0 h
  Counting results: 1.500E+06 CFU/ml
[1]; 16 MIC, 2 h
  Counting results: 3.000E+02 CFU/ml
[1]; 16 MIC, 4 h
  Counting results: 1.000E+02 CFU/ml
[1]; 16 MIC, 6 h
  Counting results: 1.000E+02 CFU/ml
[1]; 16 MIC, 24 h
  Counting results: 1.000E+02 CFU/ml
[1]; 16116/10^6 CFU/ml, >=3 log10 decrease in CFU
  Time to obtain bactericidal effect at 4 MIC: 2 h
[1]; ¼ MIC, 0 h
  Counting results: 1.500E+06 CFU/ml
[1]; ¼ MIC, 2 h
  Counting results: 2.800E+06 CFU/ml
[1]; ¼ MIC, 4 h
  Counting results: 2.600E+07 CFU/ml
[1]; ¼ MIC, 6 h
  Counting results: 3.000E+08 CFU/ml
[1]; ¼ MIC, 24 h
  Counting results: 3.900E+08 CFU/ml
[1]; ½ MIC, 0 h
  Counting results: 1.500E+06 CFU/ml
[1]; ½ MIC, 2 h
  Counting results: 3.000E+06 CFU/ml
[1]; ½ MIC, 4 h
  Counting results: 3.600E+07 CFU/ml
[1]; ½ MIC, 6 h
  Counting results: 2.300E+08 CFU/ml
[1]; ½ MIC, 24 h
  Counting results: 3.100E+08 CFU/ml
[2]; 1 MIC, 0 h
  Counting results: 9.000E+05 CFU/ml
[2]; 1 MIC, 2 h
  Counting results: 4.100E+05 CFU/ml
[2]; 1 MIC, 4 h
  Counting results: 4.000E+06 CFU/ml
[2]; 1 MIC, 6 h
  Counting results: 7.500E+06 CFU/ml
[2]; 1 MIC, 24 h
  Counting results: 9.000E+07 CFU/ml
[2]; 2 MIC, 0 h
  Counting results: 9.000E+05 CFU/ml
[2]; 2 MIC, 2 h
  Counting results: 4.100E+05 CFU/ml
[2]; 2 MIC, 4 h
  Counting results: 5.400E+05 CFU/ml
[2]; 2 MIC, 6 h
  Counting results: 2.500E+06 CFU/ml
[2]; 2 MIC, 24 h
  Counting results: 7.600E+06 CFU/ml
[2]; 4 MIC, 0 h
  Counting results: 9.000E+05 CFU/ml
[2]; 4 MIC, 2 h
  Counting results: 1.700E+04 CFU/ml
[2]; 4 MIC, 4 h
  Counting results: 1.500E+03 CFU/ml
[2]; 4 MIC, 6 h
  Counting results: 3.000E+02 CFU/ml
[2]; 4 MIC, 24 h
  Counting results: 8.000E+02 CFU/ml
[2]; 8 MIC, 0 h
  Counting results: 9.000E+05 CFU/ml
[2]; 8 MIC, 2 h
  Counting results: 5.200E+03 CFU/ml
[2]; 8 MIC, 4 h
  Counting results: 1.000E+02 CFU/ml
[2]; 8 MIC, 6 h
  Counting results: 1.000E+02 CFU/ml
[2]; 8 MIC, 24 h
  Counting results: 1.000E+02 CFU/ml
[2]; 16 MIC, 0 h
  Counting results: 9.000E+05 CFU/ml
[2]; 16 MIC, 2 h
  Counting results: 1.200E+03 CFU/ml
[2]; 16 MIC, 4 h
  Counting results: 1.000E+02 CFU/ml
[2]; 16 MIC, 6 h
  Counting results: 1.000E+02 CFU/ml
[2]; 16 MIC, 24 h
  Counting results: 1.000E+02 CFU/ml
[2]; 16127/10^6 CFU/ml, >=3 log10 decrease in CFU
  Time to obtain bactericidal effect at 4 MIC: 4 to 6 h
[2]; ¼ MIC, 0 h
  Counting results: 9.000E+05 CFU/ml
[2]; ¼ MIC, 2 h
  Counting results: 5.100E+05 CFU/ml
[2]; ¼ MIC, 4 h
  Counting results: 4.200E+06 CFU/ml
[2]; ¼ MIC, 6 h
  Counting results: 3.000E+07 CFU/ml
[2]; ¼ MIC, 24 h
  Counting results: 4.900E+10 CFU/ml
[2]; ½ MIC, 0 h
  Counting results: 9.000E+05 CFU/ml
[2]; ½ MIC, 2 h
  Counting results: 4.300E+05 CFU/ml
[2]; ½ MIC, 4 h
  Counting results: 3.700E+06 CFU/ml
[2]; ½ MIC, 6 h
  Counting results: 2.100E+07 CFU/ml
[2]; ½ MIC, 24 h
  Counting results: 3.400E+09 CFU/ml
